Measurements as given in patent publication US20120122860A1, “SOLID FORMS OF SULFONAMIDES AND AMINO ACIDS” (Plexxikon, Inc., priority 2009, published 2012).

Columns and labels:
[1] = molecular target: C-Raf (Homo sapiens, UniProt P04049); test: Kinase activity assay, C-Raf
[2] = molecular target: B-Raf V600E (Homo sapiens, UniProt P15056, V600E); test: Kinase activity assay, B-Raf V600E; assay type: biochemical; conditions: read-out: activity toward kinase B-Raf V600E, IC50
[3] = molecular target: T1, A-Raf (Homo sapiens, UniProt P10398); test: Kinase activity assay, A-Raf
T1 sequence (P10398 1-606): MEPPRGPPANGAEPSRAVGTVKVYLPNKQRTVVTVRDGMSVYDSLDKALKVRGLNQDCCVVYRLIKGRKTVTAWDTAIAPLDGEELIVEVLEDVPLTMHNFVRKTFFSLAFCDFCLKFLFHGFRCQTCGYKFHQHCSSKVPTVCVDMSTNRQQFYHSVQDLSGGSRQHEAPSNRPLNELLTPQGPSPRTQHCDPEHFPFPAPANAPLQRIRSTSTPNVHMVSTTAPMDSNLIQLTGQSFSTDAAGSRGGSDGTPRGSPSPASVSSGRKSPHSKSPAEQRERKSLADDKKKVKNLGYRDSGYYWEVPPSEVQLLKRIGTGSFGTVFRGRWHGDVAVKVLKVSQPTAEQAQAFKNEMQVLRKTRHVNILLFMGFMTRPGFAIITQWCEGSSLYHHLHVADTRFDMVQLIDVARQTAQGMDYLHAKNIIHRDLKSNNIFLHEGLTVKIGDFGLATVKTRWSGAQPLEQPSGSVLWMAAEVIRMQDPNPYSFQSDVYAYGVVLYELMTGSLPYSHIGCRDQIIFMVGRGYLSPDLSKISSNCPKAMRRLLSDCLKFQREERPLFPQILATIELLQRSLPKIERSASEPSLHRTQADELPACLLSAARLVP

[4] = molecular target: B-Raf (Homo sapiens, UniProt P15056); test: Kinase activity assay, B-Raf; assay type: biochemical; conditions: read-out: activity toward kinase B-Raf, IC50
[5] = molecular target: Kit (Homo sapiens, UniProt P10721); test: Kinase activity assay, Kit
[6] = molecular target: Src (Homo sapiens, UniProt P12931); test: Kinase activity assay, Src
[7] = molecular target: Kdr (Homo sapiens, UniProt P35968); test: Kinase activity assay, Kdr

Measured: IC50

Chain of Src (P12931 whole entry): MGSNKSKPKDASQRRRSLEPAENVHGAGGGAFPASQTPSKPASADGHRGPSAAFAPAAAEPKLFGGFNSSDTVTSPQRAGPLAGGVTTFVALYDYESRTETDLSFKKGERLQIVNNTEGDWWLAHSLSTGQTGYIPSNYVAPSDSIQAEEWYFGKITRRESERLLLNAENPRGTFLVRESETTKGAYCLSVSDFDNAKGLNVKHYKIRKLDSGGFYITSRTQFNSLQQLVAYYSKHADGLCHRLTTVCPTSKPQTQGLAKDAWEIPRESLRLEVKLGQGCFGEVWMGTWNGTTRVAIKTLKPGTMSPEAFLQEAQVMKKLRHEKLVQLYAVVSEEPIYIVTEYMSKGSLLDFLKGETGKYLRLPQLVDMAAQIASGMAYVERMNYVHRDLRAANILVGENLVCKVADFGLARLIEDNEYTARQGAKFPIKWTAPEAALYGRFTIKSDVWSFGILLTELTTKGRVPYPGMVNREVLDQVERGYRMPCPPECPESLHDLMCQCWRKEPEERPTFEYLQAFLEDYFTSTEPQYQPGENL
Chain of C-Raf (P04049 whole entry): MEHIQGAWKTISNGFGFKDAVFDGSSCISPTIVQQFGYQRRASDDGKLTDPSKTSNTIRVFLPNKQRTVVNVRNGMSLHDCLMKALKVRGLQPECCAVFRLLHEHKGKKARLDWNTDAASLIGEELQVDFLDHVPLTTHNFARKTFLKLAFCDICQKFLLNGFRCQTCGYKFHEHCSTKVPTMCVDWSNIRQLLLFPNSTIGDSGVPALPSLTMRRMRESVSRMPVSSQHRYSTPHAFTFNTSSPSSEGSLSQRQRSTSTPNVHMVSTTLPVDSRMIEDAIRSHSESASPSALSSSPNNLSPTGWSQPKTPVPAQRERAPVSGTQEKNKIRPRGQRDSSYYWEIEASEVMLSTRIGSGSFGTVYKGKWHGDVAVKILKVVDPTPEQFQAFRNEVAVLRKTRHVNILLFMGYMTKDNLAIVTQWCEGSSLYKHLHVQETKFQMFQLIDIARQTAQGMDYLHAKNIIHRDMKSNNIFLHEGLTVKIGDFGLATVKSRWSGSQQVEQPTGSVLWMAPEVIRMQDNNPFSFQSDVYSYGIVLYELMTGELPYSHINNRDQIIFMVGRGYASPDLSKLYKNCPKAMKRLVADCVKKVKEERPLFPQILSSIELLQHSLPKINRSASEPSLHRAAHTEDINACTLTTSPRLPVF
Chain of Kdr (P35968 20-1356): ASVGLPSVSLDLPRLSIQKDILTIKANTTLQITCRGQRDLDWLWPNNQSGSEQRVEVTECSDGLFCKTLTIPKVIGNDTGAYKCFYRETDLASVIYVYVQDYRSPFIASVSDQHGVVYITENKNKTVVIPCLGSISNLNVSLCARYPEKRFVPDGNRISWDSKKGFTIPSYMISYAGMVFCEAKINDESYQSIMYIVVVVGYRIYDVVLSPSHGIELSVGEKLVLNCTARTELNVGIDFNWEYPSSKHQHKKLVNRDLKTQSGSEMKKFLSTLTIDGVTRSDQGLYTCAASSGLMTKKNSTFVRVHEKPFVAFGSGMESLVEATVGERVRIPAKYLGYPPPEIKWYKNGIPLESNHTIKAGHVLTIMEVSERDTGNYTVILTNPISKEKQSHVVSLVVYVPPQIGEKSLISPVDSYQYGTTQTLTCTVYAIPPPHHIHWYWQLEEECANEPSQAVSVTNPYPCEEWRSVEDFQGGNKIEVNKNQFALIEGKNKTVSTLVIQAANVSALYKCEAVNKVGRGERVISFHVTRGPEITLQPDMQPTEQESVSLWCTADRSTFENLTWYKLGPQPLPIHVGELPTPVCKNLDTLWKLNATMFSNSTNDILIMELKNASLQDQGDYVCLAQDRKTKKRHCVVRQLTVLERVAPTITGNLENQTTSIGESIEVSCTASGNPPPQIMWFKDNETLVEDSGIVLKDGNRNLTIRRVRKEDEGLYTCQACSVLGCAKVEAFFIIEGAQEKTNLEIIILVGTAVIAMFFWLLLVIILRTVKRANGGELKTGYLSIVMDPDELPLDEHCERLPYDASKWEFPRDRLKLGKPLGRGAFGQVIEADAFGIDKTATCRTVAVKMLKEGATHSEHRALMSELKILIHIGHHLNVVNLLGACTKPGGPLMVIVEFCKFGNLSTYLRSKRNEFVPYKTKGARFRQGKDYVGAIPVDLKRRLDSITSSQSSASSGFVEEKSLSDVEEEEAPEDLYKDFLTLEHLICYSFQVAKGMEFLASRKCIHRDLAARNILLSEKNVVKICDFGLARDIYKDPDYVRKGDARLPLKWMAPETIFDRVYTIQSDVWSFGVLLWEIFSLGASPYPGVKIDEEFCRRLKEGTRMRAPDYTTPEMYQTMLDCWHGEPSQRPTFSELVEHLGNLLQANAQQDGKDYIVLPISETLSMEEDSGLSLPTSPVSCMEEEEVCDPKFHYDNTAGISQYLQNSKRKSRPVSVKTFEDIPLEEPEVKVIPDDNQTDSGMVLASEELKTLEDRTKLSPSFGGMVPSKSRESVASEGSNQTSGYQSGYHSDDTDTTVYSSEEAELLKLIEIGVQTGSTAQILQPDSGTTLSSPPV
Chain of B-Raf (P15056 whole entry): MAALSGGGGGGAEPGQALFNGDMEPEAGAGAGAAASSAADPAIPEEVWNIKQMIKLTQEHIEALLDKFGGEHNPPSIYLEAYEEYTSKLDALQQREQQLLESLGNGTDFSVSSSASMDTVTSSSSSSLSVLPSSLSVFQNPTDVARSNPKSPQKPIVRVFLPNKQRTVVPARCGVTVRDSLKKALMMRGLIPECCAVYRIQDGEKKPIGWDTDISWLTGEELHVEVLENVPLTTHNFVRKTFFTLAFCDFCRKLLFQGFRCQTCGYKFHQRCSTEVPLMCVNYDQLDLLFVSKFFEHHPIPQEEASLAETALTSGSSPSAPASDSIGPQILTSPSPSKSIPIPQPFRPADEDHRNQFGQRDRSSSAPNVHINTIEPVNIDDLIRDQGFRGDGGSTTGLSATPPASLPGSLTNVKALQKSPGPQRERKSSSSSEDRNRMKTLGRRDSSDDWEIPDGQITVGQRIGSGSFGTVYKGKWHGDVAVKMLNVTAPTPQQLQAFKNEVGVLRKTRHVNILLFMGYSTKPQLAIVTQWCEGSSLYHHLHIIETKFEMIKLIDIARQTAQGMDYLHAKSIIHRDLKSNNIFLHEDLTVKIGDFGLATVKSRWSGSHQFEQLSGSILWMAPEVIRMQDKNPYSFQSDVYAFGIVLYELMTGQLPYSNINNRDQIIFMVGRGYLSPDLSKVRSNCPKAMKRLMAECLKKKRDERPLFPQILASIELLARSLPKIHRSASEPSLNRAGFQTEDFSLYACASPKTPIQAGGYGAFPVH
Chain of B-Raf V600E (P15056 whole entry V600E): as the sequence (P15056 whole entry) above, with V600E counted along it
Chain of Kit (P10721 26-976): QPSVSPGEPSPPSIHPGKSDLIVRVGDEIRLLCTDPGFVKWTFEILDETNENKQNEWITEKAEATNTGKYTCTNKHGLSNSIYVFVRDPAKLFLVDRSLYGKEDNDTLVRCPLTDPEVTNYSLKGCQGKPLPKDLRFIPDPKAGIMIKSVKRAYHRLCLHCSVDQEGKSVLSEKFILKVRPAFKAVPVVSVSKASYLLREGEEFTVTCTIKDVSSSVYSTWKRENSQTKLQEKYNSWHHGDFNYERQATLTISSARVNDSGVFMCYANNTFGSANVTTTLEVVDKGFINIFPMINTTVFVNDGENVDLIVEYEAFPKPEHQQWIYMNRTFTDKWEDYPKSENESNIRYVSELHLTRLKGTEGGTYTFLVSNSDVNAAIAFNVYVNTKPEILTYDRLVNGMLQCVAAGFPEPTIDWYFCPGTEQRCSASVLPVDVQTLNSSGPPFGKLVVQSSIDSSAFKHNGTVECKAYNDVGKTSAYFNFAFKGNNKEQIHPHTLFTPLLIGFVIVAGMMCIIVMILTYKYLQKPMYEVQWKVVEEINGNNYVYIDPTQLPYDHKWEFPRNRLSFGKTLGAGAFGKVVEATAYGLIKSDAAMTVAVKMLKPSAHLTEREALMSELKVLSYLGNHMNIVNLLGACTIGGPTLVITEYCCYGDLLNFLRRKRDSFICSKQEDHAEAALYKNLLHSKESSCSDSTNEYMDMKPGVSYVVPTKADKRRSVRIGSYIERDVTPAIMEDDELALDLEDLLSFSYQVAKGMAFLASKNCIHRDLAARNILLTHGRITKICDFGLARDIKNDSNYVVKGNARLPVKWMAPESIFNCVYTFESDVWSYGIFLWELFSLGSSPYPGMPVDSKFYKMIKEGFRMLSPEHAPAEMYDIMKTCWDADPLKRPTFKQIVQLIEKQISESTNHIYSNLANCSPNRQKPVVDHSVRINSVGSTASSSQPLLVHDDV

N#Cc1ccnc2[nH]cc(C(=O)c3c(F)ccc(NS(=O)(=O)c4ccc(F)cc4)c3F)c12 [P-2035, N-[3-(4-Cyano-1H-pyrrolo[2,3-b]pyridine-3-carbonyl)-2,4-difluoro-phenyl]-4-fluoro-benzenesulfonamide]
not listed: [6] | [7]
≤ 10 µM: all other assays above

N#Cc1cnc2[nH]cc(C(=O)c3cccc(NS(=O)(=O)c4ccccc4)c3F)c2c1 [P-2056, N-[3-(5-Cyano-1H-pyrrolo[2,3-b]pyridine-3-carbonyl)-2-fluoro-phenyl]-benzenesulfonamide]
not listed: [5] | [7]
≤ 10 µM: all other assays above

N#Cc1cnc2[nH]cc(C(=O)c3cccc(NS(=O)(=O)c4ccc(C(F)(F)F)cc4)c3F)c2c1 [P-2057, N-[3-(5-Cyano-1H-pyrrolo[2,3-b]pyridine-3-carbonyl)-2-fluoro-phenyl]-4-trifluoromethyl-benzenesulfonamide]
not listed: [5] | [7]
≤ 10 µM: all other assays above

N#Cc1ccnc2[nH]cc(C(=O)c3c(F)ccc(NS(=O)(=O)c4ccccn4)c3F)c12 [P-2078, Pyridine-2-sulfonic acid [3-(4-cyano-1H-pyrrolo[2,3-b]pyridine-3-carbonyl)-2,4-difluoro-phenyl]-amide]
not listed: [5] | [7]
≤ 10 µM: all other assays above

CCCS(=O)(=O)Nc1ccc(F)c(C(=O)c2c[nH]c3ncc(CCC(=O)N(CC)CC)cc23)c1F [P-2255, 3-{3-[2,6-Difluoro-3-(propane-1-sulfonylamino)-benzoyl]-1H-pyrrolo[2,3-b]pyridin-5-yl}-N,N-diethyl-propionamide]
not listed: [5] | [6]
≤ 10 µM: all other assays above

CC(C)S(=O)(=O)Nc1ccc(F)c(C(=O)c2c[nH]c3nccc(Cl)c23)c1F [P-2284, Propane-2-sulfonic acid [3-(4-chloro-1H-pyrrolo[2,3-b]pyridine-3-carbonyl)-2,4-difluoro-phenyl]-amide]
≤ 10 µM: [6] | [1] | [2] | [3]

CCCC(C)S(=O)(=O)Nc1ccc(F)c(C(=O)c2c[nH]c3ncc(C#N)cc23)c1F (stereo not drawn) [P-2314, Pentane-2-sulfonic acid [3-(5-cyano-1H-pyrrolo[2,3-b]pyridine-3-carbonyl)-2,4-difluoro-phenyl]-amide]
≤ 10 µM: [1] | [2] | [3] | [5]

CCCC(C)S(=O)(=O)Nc1ccc(F)c(C(=O)c2c[nH]c3nccc(OC)c23)c1F (stereo not drawn) [P-2316, Pentane-2-sulfonic acid [2,4-difluoro-3-(4-methoxy-1H-pyrrolo[2,3-b]pyridine-3-carbonyl)-phenyl]-amide]
≤ 10 µM: [6] | [2] | [3]

CCC(C)S(=O)(=O)Nc1ccc(F)c(C(=O)c2c[nH]c3ncc(C#N)cc23)c1F (stereo not drawn) [P-2317, Butane-2-sulfonic acid [3-(5-cyano-1H-pyrrolo[2,3-b]pyridine-3-carbonyl)-2,4-difluoro-phenyl]-amide]
not listed: [6] | [7]
≤ 10 µM: all other assays above

CC(C)CS(=O)(=O)Nc1ccc(F)c(C(=O)c2c[nH]c3nccc(C#N)c23)c1F [P-2320, 2-Methyl-propane-1-sulfonic acid [3-(4-cyano-1H-pyrrolo[2,3-b]pyridine-3-carbonyl)-2,4-difluoro-phenyl]-amide]
not listed: [5] | [6]
≤ 10 µM: all other assays above

CCC(C)S(=O)(=O)Nc1ccc(F)c(C(=O)c2c[nH]c3nccc(C#N)c23)c1F (stereo not drawn) [P-2321, Butane-2-sulfonic acid [3-(4-cyano-1H-pyrrolo[2,3-b]pyridine-3-carbonyl)-2,4-difluoro-phenyl]-amide]
not listed: [5]
≤ 10 µM: all other assays above

N#Cc1ccnc2[nH]cc(C(=O)c3c(F)ccc(NS(=O)(=O)CCC(F)(F)F)c3F)c12 [P-2332, 3,3,3-Trifluoro-propane-1-sulfonic acid [3-(4-cyano-1H-pyrrolo[2,3-b]pyridine-3-carbonyl)-2,4-difluoro-phenyl]-amide]
not listed: [5] | [7]
≤ 10 µM: all other assays above

N#Cc1cnc2[nH]cc(C(=O)c3c(F)ccc(NS(=O)(=O)CC(F)(F)F)c3F)c2c1 [P-2336, 2,2,2-Trifluoro-ethanesulfonic acid [3-(5-cyano-1H-pyrrolo[2,3-b]pyridine-3-carbonyl)-2,4-difluoro-phenyl]-amide]
not listed: [5] | [7]
≤ 10 µM: all other assays above

O=C(c1c(F)ccc(NS(=O)(=O)C2CCC2)c1F)c1c[nH]c2nccc(Cl)c12 [P-2363, Cyclobutanesulfonic acid [3-(4-chloro-1H-pyrrolo[2,3-b]pyridine-3-carbonyl)-2,4-difluoro-phenyl]-amide]
not listed: [5] | [6]
≤ 10 µM: all other assays above

COc1ccnc2[nH]cc(C(=O)c3c(F)ccc(NS(=O)(=O)C4CCC4)c3F)c12 [P-2364, Cyclobutanesulfonic acid [2,4-difluoro-3-(4-methoxy-1H-pyrrolo[2,3-b]pyridine-3-carbonyl)-phenyl]-amide]
not listed: [5]
≤ 10 µM: all other assays above

O=C(c1c(F)ccc(NS(=O)(=O)C2CCCC2)c1F)c1c[nH]c2nccc(Cl)c12 [P-2368, Cyclopentanesulfonic acid [3-(4-chloro-1H-pyrrolo[2,3-b]pyridine-3-carbonyl)-2,4-difluoro-phenyl]-amide]
not listed: [5] | [7]
≤ 10 µM: all other assays above

N#Cc1ccnc2[nH]cc(C(=O)c3c(F)ccc(NS(=O)(=O)C4CCC4)c3F)c12 [P-2370, Cyclobutanesulfonic acid [3-(4-cyano-1H-pyrrolo[2,3-b]pyridine-3-carbonyl)-2,4-difluoro-phenyl]-amide]
not listed: [5] | [6]
≤ 10 µM: all other assays above

COc1ccnc2[nH]cc(C(=O)c3c(F)ccc(NS(=O)(=O)N4CCOCC4)c3F)c12 [P-2396, Morpholine-4-sulfonic acid [2,4-difluoro-3-(4-methoxy-1H-pyrrolo[2,3-b]pyridine-3-carbonyl)-phenyl]-amide]
not listed: [5] | [7]
≤ 10 µM: all other assays above

O=C(c1c(F)ccc(NS(=O)(=O)N2CCOCC2)c1F)c1c[nH]c2nccc(Cl)c12 [P-2397, Morpholine-4-sulfonic acid [3-(4-chloro-1H-pyrrolo[2,3-b]pyridine-3-carbonyl)-2,4-difluoro-phenyl]-amide]
not listed: [5] | [7]
≤ 10 µM: all other assays above
